The results in this text go back to publication PMC10549826 (Antiviral research, 2023).

As a reminder, the IC50 is the concentration needed to halve the response being measured.

The experiment has as its target A/Victoria/361/2011 NA, wild-type sequence Q136, T148, R150, T439 (recombinant PR8-based A(H3N2) virus) (Influenza A virus, UniProt G9LQ08). The class given is biochemical.

As to `CCC(CC)[C@H](NC(C)=O)[C@@H]1[C@H](O)[C@@H](C(=O)O)C[C@H]1N=C(N)N` [Peramivir, peramivir], the 50% inhibitory concentration (IC50) came out at 70 ± 10 pM.
